Source: the supplement of paper PMC10307832

Experiments:
Assay in all cases: relative viability (nuclei count vs DMSO), 5 days (fraction); higher = more cells survive
IDH-C35 + Alpelisib = compound: Cc1ccccc1C(C(=O)NC1CCCCC1)N(C(=O)Cn1ccnc1C)c1cccc(F)c1 [IDH-C35] + Cc1nc(NC(=O)N2CCC[C@H]2C(N)=O)sc1-c1ccnc(C(C)(C)C(F)(F)F)c1 [Alpelisib] (partner 2 µM)
Outline: (§1)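 Nuclei were stained with Hoechst during a one-step fixation (final 0.05% Triton X-100, 1% formaldehyde, 1 ug/ml Hoechst) carried out 5 days after dosing, then counted on 4× images. The cells, lung cancer lines in 1536-well plates, had been dosed by pin tool the day after seeding with one drug alone or a fixed anchor-drug dose plus five library-drug doses (not always all listed) in √10 steps. Relative viability is the nuclei count in treated wells divided by that in vehicle wells, and each value is the median of duplicate plates.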

[1] = compound: CC1=C(C(=NN1)C)CC2=C(C3=C(S2)N(C(=O)N(C3=O)C)CC(C)C)C(=O)N4C[C@@H](CO4)O + COc1cccc2cc(-c3nc([C@H]4CC[C@H](C(=O)O)CC4)n4ncnc(N)c34)[nH]c12 [OSI-027] (partner 0.5 µM)
Outline: as §1

[2] = compound: CC1=C(C(=NN1)C)CC2=C(C3=C(S2)N(C(=O)N(C3=O)C)CC(C)C)C(=O)N4C[C@@H](CO4)O + Cc1cc(Nc2cc(N3CCN(C)CC3)nc(Sc3ccc(NC(=O)C4CC4)cc3)n2)n[nH]1 [Tozasertib] (partner 0.1 µM)
Outline: as §1

[3] = compound: CC1=C(C(=NN1)C)CC2=C(C3=C(S2)N(C(=O)N(C3=O)C)CC(C)C)C(=O)N4C[C@@H](CO4)O + NC(=O)Nc1cc(-c2cccc(F)c2)sc1C(=O)N[C@H]1CCCNC1 [AZD7762] (partner 0.2 µM)
Outline: as §1

Cell Line	relative viability (IDH-C35 + Alpelisib; first compound 0.08 µM)	relative viability (IDH-C35 + Alpelisib; first compound 0.253 µM)	relative viability (IDH-C35 + Alpelisib; first compound 0.8 µM)	relative viability (IDH-C35 + Alpelisib; first compound 2.53 µM)	relative viability (IDH-C35 + Alpelisib; first compound 8 µM)	relative viability ([1]; first compound 0.0025 µM)	relative viability ([1]; first compound 0.007906 µM)	relative viability ([1]; first compound 0.025 µM)	relative viability ([1]; first compound 0.07906 µM)	relative viability ([1]; first compound 0.25 µM)	relative viability ([2]; first compound 0.0025 µM)	relative viability ([2]; first compound 0.007906 µM)	relative viability ([2]; first compound 0.025 µM)	relative viability ([2]; first compound 0.07906 µM)	relative viability ([2]; first compound 0.25 µM)	relative viability ([3]; first compound 0.0025 µM)	relative viability ([3]; first compound 0.007906 µM)	relative viability ([3]; first compound 0.025 µM)	relative viability ([3]; first compound 0.07906 µM)	relative viability ([3]; first compound 0.25 µM)
NCI-H1299	1.06	1.02	1.09	1.05	1.04															
NCI-H1650						0.788	0.657	0.755	0.817	0.631	0.482	0.406	0.386	0.503	0.446					
COR-L 105	1.04	1.08	1.13	0.882	0.99	0.741	0.694	0.663	0.838	0.679	0.343	0.355	0.369	0.27	0.328					
ChaGo-K-1						0.613	0.592	0.602	0.555	0.563	0.232	0.214	0.235	0.206	0.228	0.938	0.919	0.855	0.823	0.889
NCI-H2228	0.744	0.722	0.735	0.779	0.74	0.68	0.61	0.683	0.609	0.649	0.239	0.248	0.265	0.26	0.279					
NCI-H1648						0.238	0.247	0.303	0.253	0.267	0.462	0.542	0.754	0.37	0.458	0.615	0.437	0.5	0.428	0.613
NCI-H661	0.589	0.852	0.529	0.689	0.711	0.783	0.636	0.663	0.677	0.862	0.344	0.372	0.354	0.341	0.353					
NCI-H1563	0.947	0.877	1.01	0.84	0.925	0.802	0.76	0.738	0.779	0.741										
A549	0.734	0.871	0.771	0.744	0.726															
NCI-H522						0.804	0.624	0.608	0.45	0.546	0.516	0.537	0.545	0.419	0.418	0.836	1.05	0.546	0.565	0.624
NCI-H1623						0.525	0.414	0.447	0.424	0.506	0.463	0.494	0.467	0.398	0.49					
SW 900						0.671	0.66	0.55	0.659	0.54	0.57	0.558	0.536	0.524	0.591	0.604	0.706	0.628	0.58	0.449
IA-LM	0.998	0.9	0.793	0.761	0.584															
EBC-1	0.879	0.826	0.843	0.867	0.738															
